In patent US10681909B2, “Herbicidal triazoles” (FMC Corporation, priority 2014, dated 2020):

Columns and labels:
[1] = system: waterhemp; experiment: Test C postemergence; assay type: in vivo, Amaranthus rudis
Outline: (§1)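 Pre: seeded into loam/sand, sprayed same time. Post: plants in peat moss–vermiculite mix with starter nutrients and dolomitic limestone, treated at 1- to 4-leaf stage (2 to 18 cm). Formulation: non-phytotoxic solvent blend plus surfactant.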

[2] = system: barnyardgrass; experiment: Test A postemergence; assay type: in vivo, Echinochloa crus-galli; conditions: 0 to 100 scale (0 no effect, 100 complete control), approx. 10 d
Outline: (§2)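 Loam/sand soil mix; compound in non-phytotoxic solvent + surfactant. Pre: directed soil spray right after planting seed. Post: potted plants 2–10 cm, 1–2 leaf stage, sprayed with same formulation.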

[3] = system: oilseed rape; experiment: Test C postemergence; assay type: in vivo, Brassica napus
Outline: as §1

[4] = system: foxtail, giant; experiment: Test A preemergence; assay type: in vivo, Setaria faberii; conditions: 0 to 100 scale (0 no effect, 100 complete control)
Outline: as §2

[5] = system: johnsongrass; experiment: Test C postemergence; assay type: in vivo, Sorghum halepense
Outline: as §1

[6] = system: blackgrass; experiment: Test C postemergence; assay type: in vivo, Alopecurus myosuroides
Outline: as §1

[7] = system: pigweed; experiment: Test A postemergence; assay type: in vivo, Amaranthus retroflexus; conditions: 0 to 100 scale (0 no effect, 100 complete control), approx. 10 d
Outline: as §2

[8] = system: velvetleaf; experiment: Test C postemergence; assay type: in vivo, Abutilon theophrasti
Outline: as §1

[9] = system: wheat; experiment: Test A postemergence; assay type: in vivo, Triticum aestivum; conditions: 0 to 100 scale (0 no effect, 100 complete control), approx. 10 d
Outline: as §2

[10] = system: barnyardgrass; experiment: Test C postemergence; assay type: in vivo, Echinochloa crus-galli
Outline: as §1

[11] = system: nutsedge, yellow; experiment: Test C postemergence; assay type: in vivo, Cyperus esculentus
Outline: as §1

[12] = system: galium; experiment: Test C postemergence; assay type: in vivo, Galium aparine
Outline: as §1

[13] = system: sedge, umbrella; experiment: Test B flooded paddy test; assay type: in vivo, Cyperus difformis; conditions: 250 g ai/ha, applied to paddy water at 2-leaf stage, visual rating after 13 to 15 d, scale 0 (no effect) to 100 (complete control)
Outline: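 Pots were flooded to 3 cm above the soil at treatment, and compounds were applied directly into the paddy water. That depth was held throughout. After 13 to 15 d in a greenhouse, plants were rated visually against untreated controls.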

[14] = system: ryegrass, Italian; experiment: Test C postemergence; assay type: in vivo, Lolium multiflorum
Outline: as §1

[15] = system: crabgrass, large; experiment: Test C postemergence; assay type: in vivo, Digitaria sanguinalis
Outline: as §1

[16] = system: barnyardgrass; experiment: Test A preemergence; assay type: in vivo, Echinochloa crus-galli; conditions: 0 to 100 scale (0 no effect, 100 complete control)
Outline: as §2

[17] = system: foxtail, giant; experiment: Test A postemergence; assay type: in vivo, Setaria faberii; conditions: 0 to 100 scale (0 no effect, 100 complete control), approx. 10 d
Outline: as §2

[18] = system: morningglory; experiment: Test C postemergence; assay type: in vivo, Ipomoea coccinea
Outline: as §1

[19] = system: kochia; experiment: Test C postemergence; assay type: in vivo, Kochia scoparia
Outline: as §1

[20] = system: corn; experiment: Test C postemergence; assay type: in vivo, Zea mays
Outline: as §1

FC(F)(F)COc1nc(-c2ccc(Cl)cc2)nn1Cc1ccnc(C(F)(F)F)c1 [Compound 31]
25: Plant response rating (scale of 0 to 100 where 0 is no effect and 100 is complete control) ([5]; 62 g ai/ha)
60: Plant response rating (scale of 0 to 100 where 0 is no effect and 100 is complete control) ([6]; 125 g ai/ha) | Plant response rating (scale of 0 to 100 where 0 is no effect and 100 is complete control) ([15]; 125 g ai/ha) | Plant response rating (scale of 0 to 100 where 0 is no effect and 100 is complete control) ([18]; 62 g ai/ha)
95: Plant response rating (scale of 0 to 100 where 0 is no effect and 100 is complete control) ([1]; 31 g ai/ha) | Plant response rating (scale of 0 to 100 where 0 is no effect and 100 is complete control) ([18]; 31 g ai/ha)
20: Plant response rating (scale of 0 to 100 where 0 is no effect and 100 is complete control) ([11]; 31 g ai/ha) | Plant response rating (scale of 0 to 100 where 0 is no effect and 100 is complete control) ([14]; 31 g ai/ha) | Plant response rating (scale of 0 to 100 where 0 is no effect and 100 is complete control) ([15]; 31 g ai/ha) | Plant response rating (scale of 0 to 100 where 0 is no effect and 100 is complete control) ([20]; 62 g ai/ha) | Plant response rating (scale of 0 to 100 where 0 is no effect and 100 is complete control) ([20]; 125 g ai/ha)
75: Plant response rating (scale of 0 to 100 where 0 is no effect and 100 is complete control) ([8]; 250 g ai/ha) | Plant response rating (scale of 0 to 100 where 0 is no effect and 100 is complete control) ([10]; 250 g ai/ha) | Plant response rating (scale of 0 to 100 where 0 is no effect and 100 is complete control) ([18]; 125 g ai/ha)
30: Plant response rating, Wheat ([9]; 125 g ai/ha) | Plant response rating (scale of 0 to 100 where 0 is no effect and 100 is complete control) ([11]; 62 g ai/ha) | Plant response rating (scale of 0 to 100 where 0 is no effect and 100 is complete control) ([11]; 125 g ai/ha) | Plant response rating (scale of 0 to 100 where 0 is no effect and 100 is complete control) ([14]; 62 g ai/ha) | Plant response rating (scale of 0 to 100 where 0 is no effect and 100 is complete control) ([20]; 250 g ai/ha)
98: Plant response rating (scale of 0 to 100 where 0 is no effect and 100 is complete control) ([1]; 62 g ai/ha) | Plant response rating (scale of 0 to 100 where 0 is no effect and 100 is complete control) ([1]; 250 g ai/ha)
50: Plant response rating, Barnyardgrass ([2]; 125 g ai/ha) | Plant response rating (scale of 0 to 100 where 0 is no effect and 100 is complete control) ([6]; 62 g ai/ha)
80: Plant response rating (scale of 0 to 100 where 0 is no effect and 100 is complete control) ([6]; 250 g ai/ha) | Plant response rating (scale of 0 to 100 where 0 is no effect and 100 is complete control) ([12]; 31 g ai/ha) | Plant response rating (scale of 0 to 100 where 0 is no effect and 100 is complete control) ([12]; 62 g ai/ha) | Plant response rating (scale of 0 to 100 where 0 is no effect and 100 is complete control) ([12]; 125 g ai/ha) | Plant response rating (scale of 0 to 100 where 0 is no effect and 100 is complete control) ([12]; 250 g ai/ha) | Plant response rating (scale of 0 to 100 where 0 is no effect and 100 is complete control) ([15]; 250 g ai/ha) | Plant response rating, Foxtail, Giant ([17]; 125 g ai/ha)
70: Plant response rating (scale of 0 to 100 where 0 is no effect and 100 is complete control) ([5]; 250 g ai/ha)
100: Plant response rating (scale of 0 to 100 where 0 is no effect and 100 is complete control) ([1]; 125 g ai/ha) | Plant response rating, Foxtail, Giant ([4]; 125 g ai/ha) | Plant response rating, Foxtail, Giant ([4]; 500 g ai/ha, approx. 10 d) | Plant response rating, Pigweed ([7]; 125 g ai/ha) | Plant response rating, Pigweed ([7]; 500 g ai/ha) | Plant response rating, Sedge, Umbrella, Flood [13] | Plant response rating (scale of 0 to 100 where 0 is no effect and 100 is complete control) ([18]; 250 g ai/ha)
90: Plant response rating, Barnyardgrass ([2]; 500 g ai/ha) | Plant response rating (scale of 0 to 100 where 0 is no effect and 100 is complete control) ([3]; Oilsee Rape, 250 g ai/ha) | Plant response rating (scale of 0 to 100 where 0 is no effect and 100 is complete control) ([3]; Oilseed Rape, 62 g ai/ha) | Plant response rating, Barnyardgrass ([16]; 125 g ai/ha) | Plant response rating, Barnyardgrass ([16]; 500 g ai/ha, approx. 10 d) | Plant response rating, Foxtail, Giant ([17]; 500 g ai/ha) | Plant response rating (scale of 0 to 100 where 0 is no effect and 100 is complete control) ([19]; 31 g ai/ha) | Plant response rating (scale of 0 to 100 where 0 is no effect and 100 is complete control) ([19]; 62 g ai/ha) | Plant response rating (scale of 0 to 100 where 0 is no effect and 100 is complete control) ([19]; 125 g ai/ha) | Plant response rating (scale of 0 to 100 where 0 is no effect and 100 is complete control) ([19]; 250 g ai/ha)
35: Plant response rating (scale of 0 to 100 where 0 is no effect and 100 is complete control) ([5]; 31 g ai/ha) | Plant response rating (scale of 0 to 100 where 0 is no effect and 100 is complete control) ([6]; 31 g ai/ha) | Plant response rating (scale of 0 to 100 where 0 is no effect and 100 is complete control) ([10]; 31 g ai/ha) | Plant response rating (scale of 0 to 100 where 0 is no effect and 100 is complete control) ([10]; 62 g ai/ha) | Plant response rating (scale of 0 to 100 where 0 is no effect and 100 is complete control) ([11]; 250 g ai/ha) | Plant response rating (scale of 0 to 100 where 0 is no effect and 100 is complete control) ([15]; 62 g ai/ha)
40: Plant response rating (scale of 0 to 100 where 0 is no effect and 100 is complete control) ([5]; 125 g ai/ha) | Plant response rating, Wheat ([9]; 500 g ai/ha) | Plant response rating (scale of 0 to 100 where 0 is no effect and 100 is complete control) ([14]; 125 g ai/ha) | Plant response rating (scale of 0 to 100 where 0 is no effect and 100 is complete control) ([20]; 31 g ai/ha)
65: Plant response rating (scale of 0 to 100 where 0 is no effect and 100 is complete control) ([8]; 62 g ai/ha) | Plant response rating (scale of 0 to 100 where 0 is no effect and 100 is complete control) ([8]; 125 g ai/ha) | Plant response rating (scale of 0 to 100 where 0 is no effect and 100 is complete control) ([14]; 250 g ai/ha)
85: Plant response rating (scale of 0 to 100 where 0 is no effect and 100 is complete control) ([3]; Oilseed Rape, 31 g ai/ha) | Plant response rating (scale of 0 to 100 where 0 is no effect and 100 is complete control) ([3]; Oilseed Rape, 125 g ai/ha)
45: Plant response rating (scale of 0 to 100 where 0 is no effect and 100 is complete control) ([8]; 31 g ai/ha) | Plant response rating (scale of 0 to 100 where 0 is no effect and 100 is complete control) ([10]; 125 g ai/ha)
